PubChem BioAssay (NCI)
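Each compound was tested at five concentrations against cells in 96-well plates for 48 hours. TGI marks complete inhibition of growth.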

What was measured:
Test in all cases: NCI-60 cell line screen, 48 h
SF-295 CNS = test system: SF-295 CNS
HCT-116 colon = test system: HCT-116 colon
HCT-15 colon = test system: HCT-15 colon
DU-145 prostate = test system: DU-145 prostate
A549 NSCLC = test system: A549 NSCLC
OVCAR-4 ovarian = test system: OVCAR-4 ovarian
CAKI-1 renal = test system: CAKI-1 renal
EKVX NSCLC = test system: EKVX NSCLC
A498 renal = test system: A498 renal
OVCAR-3 ovarian = test system: OVCAR-3 ovarian
786-0 renal = test system: 786-0 renal
NCI-H226 lung = test system: NCI-H226 lung
ACHN renal = test system: ACHN renal
TK-10 renal = test system: TK-10 renal
U251 CNS = test system: U251 CNS
IGROV1 ovarian = test system: IGROV1 ovarian
OVCAR-5 ovarian = test system: OVCAR-5 ovarian
SK-MEL-5 melanoma = test system: SK-MEL-5 melanoma
NCI-H460 lung = test system: NCI-H460 lung
RXF 393 renal = test system: RXF 393 renal
K-562 leukemia = test system: K-562 leukemia
PC-3 prostate = test system: PC-3 prostate
HT29 colon = test system: HT29 colon
KM12 colon = test system: KM12 colon
SN12C renal = test system: SN12C renal
COLO 205 colon = test system: COLO 205 colon
LOX IMVI melanoma = test system: LOX IMVI melanoma
MCF7 breast = test system: MCF7 breast
HCC-2998 colon = test system: HCC-2998 colon
UACC-62 melanoma = test system: UACC-62 melanoma
MDA-MB-435 = test system: MDA-MB-435
SK-MEL-2 melanoma = test system: SK-MEL-2 melanoma
CCRF-CEM leukemia = test system: CCRF-CEM leukemia
UO-31 renal = test system: UO-31 renal
MOLT-4 leukemia = test system: MOLT-4 leukemia
SF-268 CNS = test system: SF-268 CNS
HOP-92 NSCLC = test system: HOP-92 NSCLC
SK-OV-3 ovarian = test system: SK-OV-3 ovarian
OVCAR-8 ovarian = test system: OVCAR-8 ovarian
MDA-N = test system: MDA-N
RPMI-8226 leukemia = test system: RPMI-8226 leukemia
UACC-257 melanoma = test system: UACC-257 melanoma
SNB-19 CNS = test system: SNB-19 CNS
SW-620 colon = test system: SW-620 colon
MALME-3M melanoma = test system: MALME-3M melanoma
BT-549 breast = test system: BT-549 breast
NCI-H23 lung = test system: NCI-H23 lung
HOP-62 NSCLC = test system: HOP-62 NSCLC
SNB-75 CNS = test system: SNB-75 CNS
SF-539 CNS = test system: SF-539 CNS
MDA-MB-231 breast = test system: MDA-MB-231 breast
M14 melanoma = test system: M14 melanoma
NCI-H522 lung = test system: NCI-H522 lung
HS 578T breast = test system: HS 578T breast
NCI/ADR-RES ovarian = test system: NCI/ADR-RES ovarian
T-47D breast = test system: T-47D breast
SR leukemia = test system: SR leukemia
HL-60(TB) leukemia = test system: HL-60(TB) leukemia
SK-MEL-28 melanoma = test system: SK-MEL-28 melanoma

For `COc1cc(Nc2cc(Cl)cc(Cl)c2)nc(N)n1`, the TGI (SF-295 CNS) was 38.3 µM, the TGI (HCT-116 colon) was 31 µM and the TGI (HCT-15 colon) was 36.5 µM. For the same compound, the TGI (DU-145 prostate) was 48.6 µM, the TGI (A549 NSCLC) was 48.5 µM and the TGI (OVCAR-4 ovarian) was 54 µM. The TGI (CAKI-1 renal) was 42.8 µM, the TGI (EKVX NSCLC) was 69 µM and the TGI (A498 renal) was 39.9 µM. For the same compound, the TGI (OVCAR-3 ovarian) was 41.1 µM, the TGI (786-0 renal) was 31.8 µM and the TGI (NCI-H226 lung) was 42.5 µM. It also gave a TGI (ACHN renal) of 37.4 µM, a TGI (TK-10 renal) of 53.9 µM and a TGI (U251 CNS) of 41.2 µM. The TGI (IGROV1 ovarian) was 44.2 µM, the TGI (OVCAR-5 ovarian) was > 100 µM and the TGI (SK-MEL-5 melanoma) was 29.7 µM. The TGI (NCI-H460 lung) was 34 µM, the TGI (RXF 393 renal) was 28.4 µM and the TGI (K-562 leukemia) was > 100 µM. It also gave a TGI (PC-3 prostate) of 59.6 µM, a TGI (HT29 colon) of 33.2 µM and a TGI (KM12 colon) of 37 µM. For the same compound, the TGI (SN12C renal) was 40.1 µM, the TGI (COLO 205 colon) was 44.2 µM and the TGI (LOX IMVI melanoma) was 32.2 µM. It also gave a TGI (MCF7 breast) of 91.4 µM, a TGI (HCC-2998 colon) of 34 µM and a TGI (UACC-62 melanoma) of 33.4 µM. It also gave a TGI (MDA-MB-435) of 75.8 µM, a TGI (SK-MEL-2 melanoma) of 32.1 µM and a TGI (CCRF-CEM leukemia) of 43.3 µM. It also gave a TGI (UO-31 renal) of 31.2 µM, a TGI (MOLT-4 leukemia) of 51 µM and a TGI (SF-268 CNS) of 41.3 µM. The TGI (HOP-92 NSCLC) was 32.1 µM, the TGI (SK-OV-3 ovarian) was 64.5 µM and the TGI (OVCAR-8 ovarian) was 39.6 µM. The TGI (MDA-N) was 62.3 µM, the TGI (RPMI-8226 leukemia) was 56.5 µM and the TGI (UACC-257 melanoma) was 38.8 µM. It also gave a TGI (SNB-19 CNS) of 64.8 µM, a TGI (SW-620 colon) of 59.8 µM and a TGI (MALME-3M melanoma) of 40.4 µM. It also gave a TGI (BT-549 breast) of 40.8 µM, a TGI (NCI-H23 lung) of 49.2 µM and a TGI (HOP-62 NSCLC) of 36.6 µM. For the same compound, the TGI (SNB-75 CNS) was 43.6 µM, the TGI (SF-539 CNS) was 33 µM and the TGI (MDA-MB-231 breast) was 43.8 µM. The TGI (M14 melanoma) was 42.1 µM, the TGI (NCI-H522 lung) was 35.9 µM and the TGI (HS 578T breast) was 57 µM. It also gave a TGI (NCI/ADR-RES ovarian) of 45.4 µM and a TGI (T-47D breast) of 92.5 µM.

For `O=C(O)CCC(NC(=O)c1ccc(Nc2nc3ccc(C(F)(F)F)cc3nc2C(=O)O)cc1)C(=O)O` (configuration not stated), the TGI (SR leukemia) was > 100 µM, the TGI (SF-295 CNS) was > 100 µM and the TGI (HCT-116 colon) was > 100 µM. The TGI (HCT-15 colon) was > 100 µM, the TGI (DU-145 prostate) was > 100 µM and the TGI (A549 NSCLC) was > 100 µM. The TGI (EKVX NSCLC) was > 100 µM, the TGI (A498 renal) was > 100 µM and the TGI (OVCAR-3 ovarian) was > 100 µM. For the same compound, the TGI (786-0 renal) was > 100 µM, the TGI (NCI-H226 lung) was > 100 µM and the TGI (ACHN renal) was > 100 µM. For the same compound, the TGI (TK-10 renal) was > 100 µM, the TGI (U251 CNS) was > 100 µM and the TGI (IGROV1 ovarian) was > 100 µM. For the same compound, the TGI (OVCAR-5 ovarian) was > 100 µM, the TGI (SK-MEL-5 melanoma) was > 100 µM and the TGI (RXF 393 renal) was > 100 µM. The TGI (K-562 leukemia) was > 100 µM, the TGI (PC-3 prostate) was > 100 µM and the TGI (HT29 colon) was > 100 µM. The TGI (KM12 colon) was > 100 µM, the TGI (SN12C renal) was > 100 µM and the TGI (COLO 205 colon) was > 100 µM. The TGI (LOX IMVI melanoma) was > 100 µM, the TGI (MCF7 breast) was > 100 µM and the TGI (HCC-2998 colon) was > 100 µM. The TGI (HL-60(TB) leukemia) was > 100 µM, the TGI (UACC-62 melanoma) was > 100 µM and the TGI (MDA-MB-435) was > 100 µM. The TGI (SK-MEL-2 melanoma) was > 100 µM, the TGI (CCRF-CEM leukemia) was > 100 µM and the TGI (UO-31 renal) was > 100 µM. The TGI (MOLT-4 leukemia) was > 100 µM, the TGI (SF-268 CNS) was > 100 µM and the TGI (HOP-92 NSCLC) was > 100 µM. The TGI (OVCAR-8 ovarian) was > 100 µM, the TGI (MDA-N) was > 100 µM and the TGI (RPMI-8226 leukemia) was > 100 µM. For the same compound, the TGI (UACC-257 melanoma) was > 100 µM, the TGI (SNB-19 CNS) was > 100 µM and the TGI (SW-620 colon) was > 100 µM. The TGI (BT-549 breast) was > 100 µM, the TGI (NCI-H23 lung) was > 100 µM and the TGI (HOP-62 NSCLC) was > 100 µM. The TGI (SNB-75 CNS) was > 100 µM, the TGI (SF-539 CNS) was > 100 µM and the TGI (MDA-MB-231 breast) was > 100 µM. The TGI (M14 melanoma) was > 100 µM, the TGI (NCI-H522 lung) was > 100 µM and the TGI (HS 578T breast) was > 100 µM. The TGI (NCI/ADR-RES ovarian) was > 100 µM and the TGI (T-47D breast) was > 100 µM.

For `N#CCC(=O)N/N=C\C(O)C(O)C(O)C(O)CO` (configuration not stated), the TGI (SR leukemia) was > 100 µM, the TGI (SF-295 CNS) was > 100 µM and the TGI (HCT-15 colon) was > 100 µM. The TGI (DU-145 prostate) was > 100 µM, the TGI (A549 NSCLC) was > 100 µM and the TGI (CAKI-1 renal) was > 100 µM. The TGI (A498 renal) was > 100 µM, the TGI (OVCAR-3 ovarian) was > 100 µM and the TGI (786-0 renal) was > 100 µM. For the same compound, the TGI (NCI-H226 lung) was > 100 µM, the TGI (ACHN renal) was > 100 µM and the TGI (TK-10 renal) was > 100 µM. The TGI (IGROV1 ovarian) was > 100 µM, the TGI (OVCAR-5 ovarian) was > 100 µM and the TGI (SK-MEL-5 melanoma) was > 100 µM. The TGI (NCI-H460 lung) was > 100 µM, the TGI (RXF 393 renal) was > 100 µM and the TGI (K-562 leukemia) was > 100 µM. The TGI (PC-3 prostate) was > 100 µM, the TGI (HT29 colon) was > 100 µM and the TGI (KM12 colon) was > 100 µM. For the same compound, the TGI (SN12C renal) was > 100 µM, the TGI (LOX IMVI melanoma) was > 100 µM and the TGI (MCF7 breast) was > 100 µM. For the same compound, the TGI (HCC-2998 colon) was > 100 µM, the TGI (HL-60(TB) leukemia) was > 100 µM and the TGI (UACC-62 melanoma) was > 100 µM. For the same compound, the TGI (MDA-MB-435) was > 100 µM, the TGI (SK-MEL-2 melanoma) was > 100 µM and the TGI (CCRF-CEM leukemia) was > 100 µM. The TGI (UO-31 renal) was > 100 µM, the TGI (MOLT-4 leukemia) was > 100 µM and the TGI (SF-268 CNS) was > 100 µM. For the same compound, the TGI (SK-MEL-28 melanoma) was > 100 µM, the TGI (SK-OV-3 ovarian) was > 100 µM and the TGI (OVCAR-8 ovarian) was > 100 µM. The TGI (MDA-N) was > 100 µM, the TGI (RPMI-8226 leukemia) was > 100 µM and the TGI (UACC-257 melanoma) was > 100 µM. For the same compound, the TGI (SNB-19 CNS) was > 100 µM, the TGI (SW-620 colon) was > 100 µM and the TGI (MALME-3M melanoma) was > 100 µM. For the same compound, the TGI (BT-549 breast) was > 100 µM, the TGI (NCI-H23 lung) was > 100 µM and the TGI (HOP-62 NSCLC) was > 100 µM. The TGI (SNB-75 CNS) was > 100 µM, the TGI (SF-539 CNS) was > 100 µM and the TGI (MDA-MB-231 breast) was > 100 µM. For the same compound, the TGI (M14 melanoma) was > 100 µM, the TGI (NCI-H522 lung) was > 100 µM and the TGI (HS 578T breast) was > 100 µM. For the same compound, the TGI (NCI/ADR-RES ovarian) was > 100 µM and the TGI (T-47D breast) was > 100 µM.
